Columns and labels:
[1] = target: T1, PDE4B2 (Homo sapiens, UniProt Q07343); test: PDE4B2 enzyme experiment (AMP-glo, cAMP substrate); type: biochemical
T1 construct: expressed in transfected cells; host or cells: Flp-In-293 (Flpin-293-PDE4B2 [sic])
Description: All compounds were dissolved in DMSO into 10 mM or 20 mM stock solutions. The compound to be tested was diluted with DMSO in a 3-fold gradient. 20 nL/well of the compound or a DMSO control was transferred to a 384-well plate by using Echo 550 instrument. The plate was sealed with a membrane and centrifuged for 1 minute. A 2x enzyme solution was prepared with an assay buffer, and 2 uL/well of the 2x enzyme solution was added, followed by equilibration at room temperature for 10 minutes. A 2x Cyclic-3',5'-AMP substrate solution was prepared with an assay buffer, and 2 uL/well of the 2x substrate solution was added, followed by incubation at room temperature for 60 minutes. 4 uL of AMP-glo reagent was added, followed by incubation at room temperature for 60 minutes. 8 ul of an AMP detection solution was added, followed by incubation at room temperature for 60 minutes. An RLU value was read on Envision 2105 plate reader. The RLU value represents the concentration of the product AMP. Inhibition rate % ^= (1 - (RLUpositive control - RLUcompound)/(RLUpositive control - RLUnegative control)) * 100. The IC50 value was then caulculated by Graphpad 8.0 software using Y = Bottom + (Top - Bottom)/(1 + 10^((LogIC50 - X) * HillSlope)).

[2] = target: T1, PDE4B2; test: PDE4B2 cell experiment (cAMP, Eu-cAMP tracer / Ulight-anti-cAMP); type: cell-based; settings: Flpin-293-PDE4B2 cells; for IC50: Foskolin; for Cell Inhibition% @1 nM / inhibition at 0.001 µM: 1 nM; for Cell Inhibition% @10 nM / inhibition at 0.01 µM: 10 nM; for Cell Inhibition% @100 nM / inhibition at 0.1 µM: 100 nM
Description: All compounds were dissolved in DMSO into 10 mM or 20 mM stock solutions. The compound to be tested was diluted with DMSO with a 3-fold gradient. […] 40 nL/well of the compound or a DMSO control was transferred to a 384-well plate by using Echo 550 instrument. […] The plate was incubated at 37°C for 30 minutes. Eu-cAMP tracer and Ulight-anti-cAMP were frozen and thawed and diluted in a lysis buffer. 10 of µl Eu-cAMP tracer was added to an experimental well, and 10 µl of Ulight-anti-cAMP was added to the experimental well. The reaction plate was centrifuged at 200 g at room temperature for 30 s and then left to stand at 25°C for 1 h, and data was then collected by Envision. Inhibition % = 100 - (Signal compound - SignalAve positive control)/(SignalAve negative control - SignalAve positive control) × 100. Graphpad 8.0 software was then used to obtain an IC50 value by calculation using Y = Bottom + (Top - Bottom)/(1 + 10^((LogIC50 - X) * HillSlope)).

[3] = target: PDE4D2 (Homo sapiens, UniProt Q08499); test: PDE4D2 enzyme experiment (AMP-glo, cAMP substrate); type: biochemical; settings: read-out: PDE4D2 IC50 Binding
Description: Inhibition rate % ^= (1 - (RLUpositive control - RLUcompound)/(RLUpositive control - RLUnegative control)) * 100.

T1 sequence (Q07343 1-564 isoform Q07343-2): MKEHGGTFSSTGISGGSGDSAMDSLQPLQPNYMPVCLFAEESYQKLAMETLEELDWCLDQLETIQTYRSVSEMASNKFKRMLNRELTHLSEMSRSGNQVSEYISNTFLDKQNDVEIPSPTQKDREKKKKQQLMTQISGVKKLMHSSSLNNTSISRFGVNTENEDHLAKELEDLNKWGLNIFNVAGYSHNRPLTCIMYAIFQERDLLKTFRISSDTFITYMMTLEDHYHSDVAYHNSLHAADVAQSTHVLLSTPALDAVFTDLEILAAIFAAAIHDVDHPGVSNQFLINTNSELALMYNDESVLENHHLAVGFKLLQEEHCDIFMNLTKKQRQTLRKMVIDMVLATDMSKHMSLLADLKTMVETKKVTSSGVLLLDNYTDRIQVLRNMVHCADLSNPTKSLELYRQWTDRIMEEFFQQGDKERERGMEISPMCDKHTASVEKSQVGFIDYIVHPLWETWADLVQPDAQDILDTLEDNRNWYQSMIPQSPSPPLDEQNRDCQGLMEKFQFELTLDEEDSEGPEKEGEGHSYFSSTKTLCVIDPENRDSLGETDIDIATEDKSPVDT
PDE4D2, sequence (Q08499 303-809 limits assumed): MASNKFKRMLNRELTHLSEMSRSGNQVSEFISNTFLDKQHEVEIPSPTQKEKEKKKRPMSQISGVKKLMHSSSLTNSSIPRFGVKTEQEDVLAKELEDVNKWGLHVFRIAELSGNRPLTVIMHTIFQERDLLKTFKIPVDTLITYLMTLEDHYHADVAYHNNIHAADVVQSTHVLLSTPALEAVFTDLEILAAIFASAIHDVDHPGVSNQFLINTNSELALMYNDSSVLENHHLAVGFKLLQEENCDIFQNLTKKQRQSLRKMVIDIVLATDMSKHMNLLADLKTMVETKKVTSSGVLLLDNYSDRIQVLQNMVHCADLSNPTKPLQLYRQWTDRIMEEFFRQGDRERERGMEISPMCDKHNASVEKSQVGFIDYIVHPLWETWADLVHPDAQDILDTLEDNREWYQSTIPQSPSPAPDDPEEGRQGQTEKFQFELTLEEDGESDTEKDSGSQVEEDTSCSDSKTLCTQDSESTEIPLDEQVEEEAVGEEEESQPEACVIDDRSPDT

| Compound | IC50 [1] [nM] | IC50 [2] [nM] | IC50 [3] [nM] | Cell Inhibition% @1 nM [2] [%] | Cell Inhibition% @10 nM [2] [%] | Cell Inhibition% @100 nM [2] [%] | inhibition at 0.001 µM [2] [%] | inhibition at 0.01 µM [2] [%] | inhibition at 0.1 µM [2] [%] |
| --- | --- | --- | --- | --- | --- | --- | --- | --- | --- |
| [O-][S+]1CCc2nc(N3Cc4nn5cc(Cl)cnc5c4C3)nc(NC3(CO)CCC3)c21 (stereo not drawn) [Compound 2] | 19.3 | 418 | 60.1 |  |  |  |  |  |  |
| [O-][S@+]1CCc2nc(N3CCc4nn5cc(Cl)cnc5c4C3)nc(NC3(CO)CCC3)c21 [Compound 4] | 2.71 | 29.6 | 7.25 |  |  |  |  |  |  |
| [O-][S@+]1CCc2nc(N3CCn4c(nc5ccc(Cl)cc54)C3)nc(NC3(CO)CCC3)c21 [Compound 6, (R)-2-(7-chloro-3,4-dihydrobenzo[4,5]imidazo[1,2-a]pyrazin-2(1H)-yl)-4-((1-(hydroxymethyl)cyclobutyl)amino)-6,7-dihydrothieno[3,2-d]pyrimidine 5-oxide] | 0.41 | 8.2 | 0.473 |  |  |  |  |  |  |
| [O-][S@+]1CCc2nc(N3CC[C@@H]4c5ccc(Cl)cc5OC[C@H]4C3)nc(NC3(CO)CCC3)c21 [Compound 14, (R)-2-((4aR,10bS)-8-chloro-1,4a,5,10b-tetrahydro-2H-chromeno[3,4-c]pyridin-3(4H)-yl)-4-((1-(hydroxymethyl)cyclobutyl)amino)-6,7-dihydrothieno[3,2-d]pyrimidine 5-oxide] | 0.21 | 16.5 | 1.08 |  |  |  |  |  |  |
| [O-][S+]1CCc2nc(N3CCc4ncsc4C3)nc(NC3(CO)CCC3)c21 (stereo not drawn) [Compound 15] | 20.4 | 150 | 28.6 |  |  |  |  |  |  |
| Cc1nc2c(s1)CN(c1nc3c(c(NC4(CO)CCC4)n1)[S+]([O-])CC3)CC2 (stereo not drawn) [Compound 16] | 10.7 | 78 | 17.3 |  |  |  |  |  |  |
| COc1ccc2c(c1)CCN(c1nc3c(c(NC4(CO)CCC4)n1)[S+]([O-])CC3)C2 (stereo not drawn) [Compound 22] | 0.97 | 14.8 | 1.46 |  |  |  |  |  |  |
| [O-][S+]1CCc2nc(N3CCc4cc(Br)ccc4C3)nc(NC3(CO)CCC3)c21 (stereo not drawn) [Compound 24] | 0.38 | 10.4 | 0.92 |  |  |  |  |  |  |
| [O-][S+]1CCc2nc(N3CCc4cc(Cl)cc(Cl)c4C3)nc(NC3(CO)CCC3)c21 (stereo not drawn) [Compound 25] | 0.92 | 23.7 | 2.19 |  |  |  |  |  |  |
| [O-][S+]1CCc2nc(N3CCc4cc(Cl)c(Cl)cc4C3)nc(NC3(CO)CCC3)c21 (stereo not drawn) [Compound 26] | 0.77 | 19.7 | 2.51 |  |  |  |  |  |  |
| O=[N+]([O-])c1ccc2c(c1)CCN(c1nc3c(c(NC4(CO)CCC4)n1)[S+]([O-])CC3)C2 (stereo not drawn) [Compound 27] | 0.55 | 8.11 | 0.88 |  |  |  |  |  |  |
| C[C@@H]1c2ccc(Cl)cc2CCN1c1nc2c(c(NC3(CO)CCC3)n1)[S@+]([O-])CC2 [Compound 29] | 0.54 |  | 1.79 |  |  |  |  |  |  |
| [O-][S+]1CCc2nc(N3CCc4c(nn5cc(F)ccc45)C3)nc(NC3(CO)CCC3)c21 (stereo not drawn) [Compound 32] | 0.201 |  | 0.405 | 23.54 | 74.22 | 97.65 |  |  |  |
| [O-][S+]1CCc2nc(N3CCc4cc5c(cc4C3)OCO5)nc(NC3(CO)CCC3)c21 (stereo not drawn) [Compound 35] | 1.32 | 46.1 | 3.89 |  |  |  |  |  |  |
| O=c1[nH]c2cc3c(cc2o1)CN(c1nc2c(c(NC4(CO)CCC4)n1)[S@+]([O-])CC2)CC3 [Compound 51, (R)-6-(4-((1-(hydroxymethyl)cyclobutyl)amino)-5-oxido-6,7-dihydrothieno[3,2-d]pyrimidin-2-yl)-5,6,7,8-tetrahydrooxazolo[4,5-g]isoquinolin-2(1H)-one] | 0.596 |  | 1.18 |  |  |  | 17.1 | 38.4 | 70.1 |
| [O-][S+]1CCc2nc(N3CCc4cc(C(F)(F)F)ccc4C3)nc(NC3(CO)CCC3)c21 (stereo not drawn) [Compound 52] | 0.488 |  | 0.826 |  | 81.81 | 99.55 |  |  |  |
| [O-][S@+]1CCc2nc(N3CCc4sc(I)cc4C3)nc(NC3(CO)CCC3)c21 [Compound 56, (R)-4-((1-(hydroxymethyl)cyclobutyl)amino)-2-(2-iodo-6,7-dihydrothieno[3,2-c]pyridin-5(4H)-yl)-6,7-dihydrothieno[2,2-d]pyrimidine 5-oxide] | 0.998 |  | 1.95 |  |  |  |  | 40.6 | 90.2 |
| [O-][S+]1CCc2nc(N3Cc4ccc(Br)cc4C3)nc(NC3(CO)CCC3)c21 (stereo not drawn) [Compound 59] | 2.12 |  | 4.75 |  | 42.65 | 85.82 |  |  |  |

| Compound | IC50 [1] [nM] | IC50 [2] [nM] | IC50 [3] [nM] | Cell Inhibition% @1 nM [2] [%] | Cell Inhibition% @10 nM [2] [%] | Cell Inhibition% @100 nM [2] [%] | inhibition at 0.001 µM [2] [%] | inhibition at 0.01 µM [2] [%] | inhibition at 0.1 µM [2] [%] |
| --- | --- | --- | --- | --- | --- | --- | --- | --- | --- |
| [O-][S+]1CCc2nc(N3CCc4cc(I)ccc4C3)nc(NC3(CO)CCC3)c21 (stereo not drawn) [Compound 67] | 0.332 |  | 0.655 | 14.20 | 47.36 | 96.42 |  |  |  |
| Cn1c(=O)oc2cc3c(cc21)CCN(c1nc2c(c(NC4(CO)CCC4)n1)[S@+]([O-])CC2)C3 [Compound 68, (R)-6-(4-((1-(hydroxymethyl)cyclobutyl)amino)-5-oxido-6,7-dihydrothieno[3,2-d]pyrimidin-2-yl)-1-methyl-5,6,7,8-tetrahydrooxazolo[4,5-g]isoquinolin-2(1H)-one] | 0.476 |  | 0.77 |  |  |  | 8.99 | 56.3 | 96.1 |
| Cn1ccc(-c2ccc3c(c2)CCN(c2nc4c(c(NC5(CO)CCC5)n2)[S+]([O-])CC4)C3)n1 (stereo not drawn) [Compound 77] | 0.05 |  | 0.049 | 61.02 | 99.37 | 100.73 |  |  |  |
| [O-][S+]1CCc2nc(N3CCc4cc(Cl)ncc4C3)nc(NC3(CO)CCC3)c21 (stereo not drawn) [Compound 78] | 1.82 |  | 4.02 | 2.20 | 32.09 | 86.33 |  |  |  |
| COc1ccc2sc3c(c2c1)CCN(c1nc2c(c(NC4(CO)CCC4)n1)[S+]([O-])CC2)C3 (stereo not drawn) [Compound 82] | 0.366 |  | 0.764 | 19.08 | 77.47 | 99.87 |  |  |  |
| [O-][S+]1CCc2nc(N3CC[C@@H]4c5ccccc5OC[C@H]4C3)nc(NC3(CO)CCC3)c21 (stereo partly drawn) [Compound 83] | 0.621 |  | 1.07 | 5.79 | 47.82 | 97.34 |  |  |  |
| [O-][S+]1CCc2nc(N3CCc4cc(-c5cnco5)ccc4C3)nc(NC3(CO)CCC3)c21 (stereo not drawn) [Compound 85] | 0.085 |  | 0.157 | 41.7 | 97.0 | 101.1 |  |  |  |
| CN1CCN(c2ccc3c(c2)CCN(c2nc4c(c(NC5(CO)CCC5)n2)[S+]([O-])CC4)C3)C1=O (stereo not drawn) [Compound 86] | 0.24 |  | 0.481 | 8.69 | 63.13 | 97.77 |  |  |  |
| [O-][S+]1CCc2nc(N3CCc4cc(N5CC(F)C5)ccc4C3)nc(NC3(CO)CCC3)c21 (stereo not drawn) [Compound 89] | 0.705 |  | 1.63 | 3.47 | 37.42 | 95.32 |  |  |  |
| [O-][S+]1CCc2nc(N3CCc4cc(-n5ccnc5)ccc4C3)nc(NC3(CO)CCC3)c21 (stereo not drawn) [Compound 90] | 0.19 |  | 0.385 | 14.99 | 65.79 | 97.23 |  |  |  |
| [O-][S+]1CCc2nc(N3CCc4cc(-n5cccn5)ccc4C3)nc(NC3(CO)CCC3)c21 (stereo not drawn) [Compound 91] | 0.142 |  | 0.233 | 19.25 | 86.01 | 99.96 |  |  |  |
| [O-][S+]1CCc2nc(N3CCc4cc(N5CCCC5)ccc4C3)nc(NC3(CO)CCC3)c21 (stereo not drawn) [Compound 92] | 0.161 |  | 0.776 | 3.35 | 43.69 | 98.17 |  |  |  |
| CS(=O)(=O)c1ccc2c(c1)CCN(c1nc3c(c(NC4(CO)CCC4)n1)[S+]([O-])CC3)C2 (stereo not drawn) [Compound 93] | 0.344 |  | 0.603 | 14.02 | 61.02 | 94.24 |  |  |  |
| [O-][S@+]1CCc2nc(N3CCc4nc(N5CCCC5)ccc4C3)nc(NC3(CO)CCC3)c21 [Compound 135, (R)-4-((1-(hydroxymethyl)cyclobutyl)amino)-2-(2-(pyrrolidin-1-yl)-7,8-dihydro-1,6-naphthyridin-6(5H)-yl)-6,7-dihydrothieno[3,2-d]pyrimidine 5-oxide] |  |  | 3.38 |  |  |  |  |  |  |
| [O-][S@+]1CCc2nc(N3CCc4c(ccc(N5CCCC5)c4F)C3)nc(NC3(CO)CCC3)c21 [Compound 180, (R)-2-(5-fluoro-6-(pyrrolidin-1-yl)-3,4-dihydroisoquinolin-2(1H)-yl)-4-((1-(hydroxymethyl)cyclobutyl)amino)-6,7-dihydrothieno[3,2-d]pyrimidine 5-oxide] |  |  | 6.38 |  |  |  |  |  |  |
| [O-][S@+]1CCc2nc(N3CCc4cc(N5CCCC5)c(F)cc4C3)nc(NC3(CO)CCC3)c21 [Compound 181, (R)-2-(7-fluoro-6-(pyrrolidin-1-yl)-3,4-dihydroisoquinolin-2(1H)-yl)-4-((1-(hydroxymethyl)cyclobutyl)amino)-6,7-dihydrothieno[3,2-d]pyrimidine 5-oxide] |  |  | 0.876 |  |  |  |  |  |  |
| [O-][S@+]1CCc2nc(N3CCc4nc(N5CCCC5)cnc4C3)nc(NC3(CO)CCC3)c21 [Compound 218, (R)-4-((1-(hydroxymethyl)cyclobutyl)amino)-2-(2-(pyrrolidin-1-yl)-7,8-dihydropyrido[3,4-b]pyrazin-6(5H)-yl)-6,7-dihydrothieno[3,2-d]pyrimidine 5-oxide] |  |  | 1.88 |  |  |  |  |  |  |

From patent EP4678644A1, “SUBSTITUTED DIHYDROTHIENOPYRIMIDINE COMPOUND, PREPARATION METHOD THEREFOR, AND USE THEREOF” (Shanghai Yidi Biotechnology Co., Ltd., priority 2023, dated 2024)
